Reference: publication PMC7308271, “Discovery of a new class of orthosteric antagonists with nanomolar potency at extrasynaptic GABAA receptors” (Scientific Reports, 2020)
Read-outs that look alike come from different tables or passages of the source.

Experiments:
Type in all cases: cell-based
[1] = target: T1, human α1β2δ GABAΑ receptor (Homo sapiens, UniProt P14867+P47870); assay: FMP assay at α1β2δ GABAA receptors in HEK cells
T1 construct: expressed in transfected cells; host or cells: δ-HEK (HEK293 Flp-In stably expressing human δ), transiently transfected with α and β 1:1
T1 sequence (P14867 28-456): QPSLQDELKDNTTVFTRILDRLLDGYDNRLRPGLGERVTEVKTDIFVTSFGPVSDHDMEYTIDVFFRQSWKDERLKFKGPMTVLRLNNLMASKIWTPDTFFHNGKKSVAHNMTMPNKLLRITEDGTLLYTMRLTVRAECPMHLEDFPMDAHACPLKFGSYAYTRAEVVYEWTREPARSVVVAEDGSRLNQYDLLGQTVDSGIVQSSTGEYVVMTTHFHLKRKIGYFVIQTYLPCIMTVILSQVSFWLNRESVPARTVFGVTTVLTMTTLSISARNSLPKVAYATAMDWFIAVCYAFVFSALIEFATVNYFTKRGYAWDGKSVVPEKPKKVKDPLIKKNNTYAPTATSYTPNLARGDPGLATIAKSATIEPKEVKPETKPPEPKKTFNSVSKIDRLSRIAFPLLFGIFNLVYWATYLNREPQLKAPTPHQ
T1 sequence (P47870 25-512 limits assumed): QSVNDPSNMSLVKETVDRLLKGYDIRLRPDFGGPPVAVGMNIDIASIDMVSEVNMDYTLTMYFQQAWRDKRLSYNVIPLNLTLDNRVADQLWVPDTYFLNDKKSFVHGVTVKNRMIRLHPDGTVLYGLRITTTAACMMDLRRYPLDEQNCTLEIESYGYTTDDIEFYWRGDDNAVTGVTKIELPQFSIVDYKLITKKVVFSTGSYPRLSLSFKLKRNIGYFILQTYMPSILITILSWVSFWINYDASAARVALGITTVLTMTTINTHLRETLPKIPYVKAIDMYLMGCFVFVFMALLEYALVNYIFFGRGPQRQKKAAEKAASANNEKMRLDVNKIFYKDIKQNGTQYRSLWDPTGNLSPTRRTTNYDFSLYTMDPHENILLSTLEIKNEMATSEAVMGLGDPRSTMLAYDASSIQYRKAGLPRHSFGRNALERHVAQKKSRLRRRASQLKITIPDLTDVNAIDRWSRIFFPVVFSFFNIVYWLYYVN
T1 sequence (O14764 25-452 partner): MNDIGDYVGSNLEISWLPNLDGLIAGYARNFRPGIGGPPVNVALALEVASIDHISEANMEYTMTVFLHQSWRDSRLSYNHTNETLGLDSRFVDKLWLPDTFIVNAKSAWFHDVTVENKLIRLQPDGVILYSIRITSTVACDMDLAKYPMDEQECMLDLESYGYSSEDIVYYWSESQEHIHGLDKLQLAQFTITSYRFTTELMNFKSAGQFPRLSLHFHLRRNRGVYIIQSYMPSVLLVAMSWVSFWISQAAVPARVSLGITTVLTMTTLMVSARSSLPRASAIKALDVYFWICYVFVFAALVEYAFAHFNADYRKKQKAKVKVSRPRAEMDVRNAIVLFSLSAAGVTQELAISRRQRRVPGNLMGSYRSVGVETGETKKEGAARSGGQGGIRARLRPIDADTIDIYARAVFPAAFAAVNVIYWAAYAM
Description: (§1) HEK293 cells were maintained in DMEM containing GlutaMAX-I, supplemented with 10% FBS and 1% penicillin-streptomycin and incubated at 37 °C and a humidity of 5% CO2. For expression of δ-containing GABAΑ receptors, a HEK293 Flp-In^ΤΜ cell line stably expressing the human GABAΑ δ-subunits (referred to as δ-HEK) was used and the γ-containing subtypes was expressed in a background HEK293 Flp-In^ΤΜ cell line stably expressing the G-protein coupled peptide receptor NPBWR2 (referred to as HEK background)[26], both positively selected for using 200 μg/mL hygromycin B. α1β2γ2 receptors were stably expressed in a HEK293 cell line maintained as above but with no selection (gift from Marianne L. Jensen, Neurosearch).
(§2) To express recombinant GABAΑ receptors human α1, α2, α3, α5, α6, β2, γ2 (pcDNA3.1/Zeo) and α4, β1 (pUNIV)[26] subunit cDNA were transiently transfected into either δ-HEK or HEK background cells. δ-HEK cells were transfected with α- and β-subunits in a 1:1 ration whereas HEK background cells were transfected with α-, β- and γ-subunits in a 1:1:2 ratio. Human BGT1 (pcDNA5/FRT)[43] was transiently transfected into the δ-HEK cell line. δ-HEK cells transfected for whole-cell patch-clamp recordings were co-transfected with green fluorescent protein (GFP) as well as α- and β-subunits in a 0.5:1:1 ratio (0.8 μg + 1.6 μg + 1.6 μg in a 6 cm dish) in order to identify transfected cells. The transfection was carried out using Polyfect as transfection reagent according to the manufactures protocol expect for using half the recommended volume of Polyfect.
(§3) The FMP assay was performed as previously described with a few modifications. Briefly, HEK cells were transfected as described[26] and 16–20 hours later plated (50,000 cells/well in DMEM medium) into clear-bottomed black 96-well plates coated with poly-D-lysine and the assay performed 20–28 hours later. The assay protocol including the FMP blue dye incorporation into membranes was exactly as described in Falk-Petersen et al.[26]. […] Data was obtained as changes in fluorescence units (∆RFU) by measuring emission at 560 nm caused by excitation at 530 nm. Unless otherwise mentioned in the text or figure legends experiments were performed in at least three independent experiments each using three technical replicates. Due to an observed edge effect for the FMP assay, outer wells were not used except for the screening.
(§4) Data obtained in the FMP assay are given as relative changes in fluorescence units (ΔRFU) by subtracting the average of the baseline fluorescence signal from the peak fluorescence signal after compound addition. All raw traces were inspected manually and peak signals resulting from compound/buffer addition together with signal artefacts were omitted from the analysis.
The concentration-response curves obtained in the FMP assay for both agonists (determining EC50 values) and antagonists (determining IC50 values) were fitted using the four-parameter concentration-response model: Response=bottom+top−bottom/1+10^[(logEC50-A)⋅nH] EC/IC50 values describe the concentration resulting in the half-maximal response (halfway between top and bottom), and nΗ is the Hill coefficient. […] Gaddum Schild analysis was performed using GraphPad Prism version 8.2.1 (GraphPad Software Inc., San Diego, CA, USA). EC50/IC50 values obtained in the FMP assay are given as means ± SEM from at least three independent experiments with three technical replicates, as specified in the individual figure legends.

[2] = target: T2, human α6β2δ GABAΑ receptor (Homo sapiens, UniProt P47870+Q16445); assay: FMP assay at α6β2δ GABAA receptors in HEK cells
T2 construct: expressed in transfected cells; host or cells: δ-HEK (HEK293 Flp-In stably expressing human δ), transiently transfected with α and β 1:1
T2 sequence (Q16445 20-453, one chain of several): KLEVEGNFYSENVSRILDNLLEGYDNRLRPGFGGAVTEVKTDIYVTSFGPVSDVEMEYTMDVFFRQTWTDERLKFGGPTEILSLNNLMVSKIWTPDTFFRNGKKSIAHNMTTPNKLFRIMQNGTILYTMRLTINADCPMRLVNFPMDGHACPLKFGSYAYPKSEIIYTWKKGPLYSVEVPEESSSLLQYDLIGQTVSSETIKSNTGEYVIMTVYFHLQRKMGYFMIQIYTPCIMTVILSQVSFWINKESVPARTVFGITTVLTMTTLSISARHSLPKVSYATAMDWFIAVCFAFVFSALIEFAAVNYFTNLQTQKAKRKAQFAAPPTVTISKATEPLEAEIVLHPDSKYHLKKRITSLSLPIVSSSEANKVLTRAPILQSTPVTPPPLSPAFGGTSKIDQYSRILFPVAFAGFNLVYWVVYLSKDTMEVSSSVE
Description: as §1, §2
The FMP assay was performed as previously described with a few modifications. […] Data was obtained as changes in fluorescence units (∆RFU) by measuring emission at 560 nm caused by excitation at 530 nm. […]
Data obtained in the FMP assay are given as relative changes in fluorescence units (ΔRFU) by subtracting the average of the baseline fluorescence signal from the peak fluorescence signal after compound addition. […]

[3] = target: T3, human α4β2δ GABAΑ receptor (Homo sapiens, UniProt P47870+P48169); assay: FMP assay at α4β2δ GABAA receptors in HEK cells
T3 construct: expressed in transfected cells; host or cells: δ-HEK (HEK293 Flp-In stably expressing human δ), transiently transfected with α and β 1:1
T3 sequence (P48169 36-554, one chain of several): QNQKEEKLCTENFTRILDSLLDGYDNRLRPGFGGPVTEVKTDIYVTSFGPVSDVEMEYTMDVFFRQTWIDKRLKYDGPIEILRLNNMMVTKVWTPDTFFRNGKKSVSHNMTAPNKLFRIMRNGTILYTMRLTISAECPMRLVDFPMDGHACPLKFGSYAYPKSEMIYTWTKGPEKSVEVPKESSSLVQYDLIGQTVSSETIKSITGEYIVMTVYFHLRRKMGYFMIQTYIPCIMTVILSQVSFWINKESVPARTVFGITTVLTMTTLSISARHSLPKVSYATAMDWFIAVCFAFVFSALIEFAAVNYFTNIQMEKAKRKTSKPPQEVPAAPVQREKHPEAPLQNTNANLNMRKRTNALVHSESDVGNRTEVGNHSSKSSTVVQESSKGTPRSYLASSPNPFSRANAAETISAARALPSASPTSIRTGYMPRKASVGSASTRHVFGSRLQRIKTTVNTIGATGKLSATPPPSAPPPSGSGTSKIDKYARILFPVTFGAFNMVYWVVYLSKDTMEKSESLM
Description: as §1, §2, §3
as §4, with “analysis. […]” for “analysis.”

[4] = antagonist activity vs GABA EC80 10–14 μM, mean, read-out: IC50
[5] = vs GABA EC80, read-out: pIC50 ± SEM (converted)
[6] = read-out: pIC50 ± SEM (converted)

IC50 [1, 4] [nM] | IC50 [1, 5] [nM] | IC50 [2, 6] [nM] | increased potency at α4β2δ compared to α1β2γ2 ([3]; IC50 68 nM vs 790 nM) [times] | IC50 ([3]; read-out: IC50) [nM] | potency reduction of 2027 compared to 018 [1] [times] | IC50 ([2]; read-out: IC50) [nM] | IC50 [3, 6] [nM] | SMILES | GABA EC80 ([1]; calculated from GABA potencies, used in antagonist tests) [nM] | GABA EC80 ([2]; α6β2δ, calculated from GABA potencies) [nM] | GABA EC80 ([3]; α4β2δ, calculated from GABA potencies) [nM]
240 | 245 | 331 | 12 | 68 |  |  |  | O=C(Nc1cccc(C(=O)N2CCC3(CCNCC3)CC2)c1)c1cccs1 [compound 018, N-(3-(3,9-diazaspiro[5.5]undecane-3-carbonyl)phenyl)thiophene-2-carboxamide] |  |  | 
 |  |  |  |  |  |  |  | NCCCC(=O)O [GABA] | 10000 to 14000 | 3000 | 800 to 1000
6680 | 6760 |  |  |  | 28 | 4130 | 363 | CC(=O)Nc1cccc(C(=O)N2CCC3(CCNCC3)CC2)c1 [compound 2027, N-(3-(3,9-diazaspiro[5.5]undecane-3-carbonyl)phenyl)acetamide] |  |  | 
